For orientation: IC50 means the concentration at which inhibition is half-maximal.

Structures can show the parent of a compound that is named as a salt.

One assay deals with T1, rat liver HMG-CoA reductase (Rattus norvegicus, UniProt P51639).
T1 construct: from tissue; host or cells: rat liver microsomes
T1 sequence (P51639 1-887): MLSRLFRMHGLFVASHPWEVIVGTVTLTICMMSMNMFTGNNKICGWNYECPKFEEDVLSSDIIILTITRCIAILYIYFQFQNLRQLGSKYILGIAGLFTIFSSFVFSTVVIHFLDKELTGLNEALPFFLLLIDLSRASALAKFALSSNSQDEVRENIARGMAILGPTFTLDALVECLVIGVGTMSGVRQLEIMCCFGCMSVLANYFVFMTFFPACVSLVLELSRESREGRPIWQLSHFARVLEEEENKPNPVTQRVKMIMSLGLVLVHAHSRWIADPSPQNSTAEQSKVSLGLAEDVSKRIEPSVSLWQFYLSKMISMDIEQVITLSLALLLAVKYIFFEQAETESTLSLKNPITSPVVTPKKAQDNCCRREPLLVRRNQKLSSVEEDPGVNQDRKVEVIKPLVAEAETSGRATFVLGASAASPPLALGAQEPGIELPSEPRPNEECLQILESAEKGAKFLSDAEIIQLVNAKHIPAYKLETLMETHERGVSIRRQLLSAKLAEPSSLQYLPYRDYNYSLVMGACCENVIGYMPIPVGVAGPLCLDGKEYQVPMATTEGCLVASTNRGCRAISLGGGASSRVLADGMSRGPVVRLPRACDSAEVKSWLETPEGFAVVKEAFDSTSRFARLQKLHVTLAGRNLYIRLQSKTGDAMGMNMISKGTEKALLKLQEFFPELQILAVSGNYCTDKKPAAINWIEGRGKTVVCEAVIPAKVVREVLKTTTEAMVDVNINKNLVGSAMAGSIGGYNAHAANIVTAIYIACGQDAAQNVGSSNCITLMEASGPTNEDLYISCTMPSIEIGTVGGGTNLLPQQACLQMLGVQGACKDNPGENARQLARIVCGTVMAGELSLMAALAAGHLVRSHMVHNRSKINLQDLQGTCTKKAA
The assay is described as follows: Test A: In Vitro Inhibition of Microsomal HMG-CoA Reductase. Format: biochemical. The note with it: intact, fully activated microsomal form of rat liver enzyme; [3-14C]-HMG-CoA 0.33 mM; NADPH 3.0 mM; pH 7.2; at least 4 dilutions in duplicate. The protocol:
Test A: In Vitro Inhibition of Microsomal HMG-CoA Reductase:
The intact, fully activated microsomal form of rat liver HMG-CoA reductase (subunit MW ca 100,000 daltons) was prepared as described by Parker, et al., Biochem. Biophys. Res. Commun., 125, 629-635 (1984), and used as the source of enzyme for assays. HMG-CoA reductase activity was determined essentially by the method of Shapiro, et al., Biochem. Biophys. Acta., 370. 369-377 (1974), with modifications as described by Ingebritsen and Gibson, Meth. Enzymol. 71. 486-497 (1981) with the exception that the internal standard ^3 H-mevalonolactone is added after termination of the assay. In this procedure, the enzyme is assayed by measuring the formation of product, ^14 C-mevalonate, from the substrate, [3-^14 C]-HMG-CoA, in the presence of NADPH. The ^14 C-mevalonate is converted to its lactone and isolated by silica thin-layer chromatography (Whatman LK5D, developed in 50:50 benzene:acetone) in the presence of ^3 H-mevalonolactone as an internal standard. Assays were conducted under conditions in which product formation was linear with respect to time and enzyme concentration.
To measure reductase inhibition, test compounds dissolved in water or dimethylsulfoxide and diluted in buffer A (50 mM imidazole-HCl, 250 mM NaCl, 1 mM EDTA, 1 mM EGTA, 5 mM DTT, 20 μM leupeptin, pH =7.2) were incubated with aliquots of microsomes (80-160 μg protein in buffer A) followed by addition of d,l-[3-^14 C]-HMG-CoA (0.33 mM, 2.0 dpm/picomole) and NADPH (3.0 mM). The 50 percent inhibitory concentration IC50) for each compound in Table 1 was calculated from the linear regression line of the percent decrease (from control) in enzyme activity vs. log concentration of inhibitor, determined using at least 4 dilutions of each test compound assayed in duplicate.
`CC(C)(C)C(C=C[C@@H](O)C[C@@H](O)CC(=O)O)=C(c1ccc(F)cc1)c1ccc(F)cc1` (relative stereo) [Example 42, Erythro-9,9-bis(4-fluorophenyl)-3,5-dihydroxy-8-(1,1-dimethylethyl)-6,8-nonadienoic acid sodium salt] displayed an IC50 of 500 nM.

The molecule `O=C(O)C[C@H](O)C[C@H](O)C=CC(=C(c1ccc(F)cc1)c1ccc(F)cc1)C1CC1` (relative stereo) [Example 51, Erythro-8-cyclopropyl-9,9-bis(4-fluorophenyl)-3,5-dihydroxy-6,8-nonadienoicacid sodium salt] returned an IC50 of 450 nM. `CCC(C=C[C@@H](O)C[C@@H](O)CC(=O)O)=C(c1ccc(F)cc1)c1ccc(F)cc1` (relative stereo) [Example 59, Erythro-8-ethyl-9,9-bis(4-fluorophenyl)-3,5-dihydroxy-6,8-non adienoate sodium salt] returned a half-maximal inhibitory concentration (IC50) of 410 nM. On the same count and under the same terms, with `CC(C)C(C=C[C@@H](O)C[C@@H](O)CC(=O)O)=C(c1ccc(F)cc1)c1ccc(F)cc1` (relative stereo) [Example 8, Erythro-9,9-bis(4-fluorophenyl)-3,5-dihydroxy-8-(1-methylethyl)-6,8-nonadienoic acid sodium salt] the figure was 265 nM; with `O=C(O)C[C@H](O)C[C@H](O)C=CC(=C(c1ccc(F)cc1)c1ccc(F)cc1)C(F)(F)F` (relative stereo) [Example 73, Erythro9,9-bis(4-fluorophenyl)-3,5-dihydroxy-8-trifluoromethyl-6,8-nonadienoic acid sodium salt], 1580 nM.

The subject of the next assay is Isolated Hepatocyte Cholesterol Biosynthesis. The assay is described as follows: Test B: Isolated Hepatocyte Cholesterol Biosynthesis Assay. Format: cell-based, male Wistar rats. The conditions noted are these: freshly isolated rat hepatocytes, 10 min preincubation, 60 minutes at 37°, pH 7.35, incorporation of 3H or 14C into sterols, read-out: IC50, Inhibition of Isolated Hepatocyte Cholesterol Biosynthesis. The protocol:
Test B: Isolated Hepatocyte Cholesterol Biosynthesis Assay:
Intact parenchymal hepatocytes were isolated from male Wistar rats (180-280 g) fed cholestyramine containing or normal diet, using the collagenase perfusion method essentially as described by Seglen, in Methods in Cell Biology (D. Prescott, ed.) Vol. 13, pp. 29-83, Academic Press, New York (1976). Cell preparations were used only when viability (trypan blue exclusion) exceeded 90%. Cholesterol biosynthesis was determined as the incorporation by hepatocytes of ^3 H from [^3 H]-water into total (cellular plus medium) 3β-hydroxy sterols as per Ingebritsen, et al., J. Biol. Chem., 254, 9986-9989 (1979). Hepatocyte sterols and lipids were isolated by a modification of the methods described by Kates, in Techniques in Lipidology. (M. Kates, ed.), pp. 349, 360-363, North Holland Publ. Co., Amsterdam, 1972. To isolate sterols, cells are extracted with methanol:chloroform:water (2:1:0.8), the chloroform phase is separated and extracted with benzene to remove traces of water, then dried under nitrogen. The residue is saponified at 75° C. with 0.30 N NaOH in methanol:water (9:1). […] The ^3 H-labelled sterols are quantified by liquid scintillation and corrected for counting efficiency. […]
Consider `CC(C)C(C=C[C@@H](O)C[C@@H](O)CC(=O)O)=C(c1ccc(F)cc1)c1ccc(F)cc1` (relative stereo) [Example 8, Erythro-9,9-bis(4-fluorophenyl)-3,5-dihydroxy-8-(1-methylethyl)-6,8-nonadienoic acid sodium salt], for which the IC50 was found to be 27 nM.

On to `CC[C@H](C)C(=O)O[C@H]1C[C@@H](C)C=C2C=C[C@H](C)[C@H](CC[C@@H]3C[C@@H](O)CC(=O)O3)[C@H]21` [Mevinolin (Lovastatin), reference compound], for which the IC50 was 46 ± 26 nM.
